Laboratory results from patent US20150219673A1, “THE USE OF GENE EXPRESSION PROFILING AS A BIOMARKER FOR ASSESSING THE EFFICACY OF HDAC INHIBITOR TREATMENT IN NEURODEGENERATIVE CONDITIONS” (Massachusetts Institute of Technology, priority 2012, published 2015).

Tested on: hippocampus of 5XFAD mice
Test: RNA sequencing of hippocampus of 5XFAD mice after chronic CI-994 treatment
Format: in vivo, mouse
Conditions: 5XFAD mice hippocampus
From the text: To test if high-throughput genome-wide RNA sequencing can be readily used a biomarker for HDAC inhibitor-mediated treatment of cognitive decline associate with AD, a mouse model of familial AD, the SXFAD mice were used. These mice harbor point mutations in the AD-related pathogenic presenilin and amyloid precursor protein pathways, and recapitulate the majority of human AD pathologies, including amyloid-β deposition, neurodegeneration, and cognitive impairments. […] After completion of treatment, mice were sacrificed, their brain regions dissected, and total RNA extracted of the hippocampus, a brain region important for memory formation and storage. The RNA was quality controlled using Agilent's bioanalyzer 5' and 3'-end labeled and sequenced on an Illumina HiSeq sequencer with 200 million reads per sample. Sequence reads were aligned to the mouse genome, and quality-filtered. Differential analysis was then conducted using Cuffdiff with IIlumina iGenome mm9 UCSC gene annotation.

[1] = CI-994 1 mg/kg i.p. daily 1 month

CC(=O)Nc1ccc(C(=O)Nc2ccccc2N)cc1 [CI-994, 4-(acetylamino)-N-(2-aminophenyl)benzamide]
1700026L06Rik expression level [1]: 0.5624
4833427G06Rik expression level [1]: 1.156
Abhd2 expression level [1]: 16.6349
Acaa2 expression level [1]: 15.6611
Acacb expression level [1]: 0.6669
Acss3 expression level [1]: 0.8644
Adcy1 expression level [1]: 121.693
Aebp1 expression level [1]: 4.334
Aldh1a1 expression level [1]: 16.8375
Aldh2 expression level [1]: 35.3667
Als2cr4 expression level [1]: 14.5748
Angptl2 expression level [1]: 1.519
Antxr1 expression level [1]: 4.106
Apln expression level [1]: 9.121
Arc expression level [1]: 77.622
Arhgap28 expression level [1]: 0.18
Arsg expression level [1]: 13.3427
Atf4 expression level [1]: 63.7327
Atp2b3 expression level [1]: 41.3436
Atp7a expression level [1]: 1.987
Atp11c expression level [1]: 3.649
B230217C12Rik expression level [1]: 41.8821
BC049635 expression level [1]: 0.514
Baiap2l1 expression level [1]: 0.6224
Bmp6 expression level [1]: 5.713
Bmp7 expression level [1]: 2.931
Brwd3 expression level [1]: 1.786
Bst2 expression level [1]: 4.307
Btbd3 expression level [1]: 34.9585
C1ql2 expression level [1]: 39.6924
C1qtnf5 expression level [1]: 15.0312
C230081A13Rik expression level [1]: 8.241
C530008M17Rik expression level [1]: 17.1167
Cabp7 expression level [1]: 205.981
Car14 expression level [1]: 6.584
Ccdc141 expression level [1]: 2.317
Ccnd1 expression level [1]: 15.4148
Cdh3 expression level [1]: 0.3686
Cdr2 expression level [1]: 5.994
Cndp1 expression level [1]: 0.2514
Cnst expression level [1]: 10.5531
Col4a3 expression level [1]: 0.1459
Col4a4 expression level [1]: 0.1702
Col17a1 expression level [1]: 0.02351
Coro2b expression level [1]: 59.6533
Cpn1 expression level [1]: 0.2381
Cpne7 expression level [1]: 72.8282
Cpt1b expression level [1]: 0
Crtac1 expression level [1]: 33.2962
Crtap expression level [1]: 2.382
Ctnnal1 expression level [1]: 4.538
Cul4b expression level [1]: 14.4206
Cxcl14 expression level [1]: 62.1186
Dab2 expression level [1]: 2.765
Dclk3 expression level [1]: 6.883
Dcn expression level [1]: 18.2706
Dgkh expression level [1]: 8.277
Dio2 expression level [1]: 13.4167
Dmrt3 expression level [1]: 0.6692
Dnahc11 expression level [1]: 0.2181
Doc2b expression level [1]: 33.8561
Dpep1 expression level [1]: 0.1399
Dsg2 expression level [1]: 0.9993
Dsp expression level [1]: 8.258
Ephx1 expression level [1]: 17.8668
Eps8l2 expression level [1]: 1.379
F11r expression level [1]: 3.438
Fads2 expression level [1]: 8.701
Fam38a expression level [1]: 0.6613
Fam163b expression level [1]: 67.8893
Fras1 expression level [1]: 0.749
Fst expression level [1]: 1.755
Fxyd1 expression level [1]: 37.5709
Fzd4 expression level [1]: 3.613
Gabra2 expression level [1]: 45.2624
Galm expression level [1]: 1.687
Gas6 expression level [1]: 39.2248
Glb1l2 expression level [1]: 0.5483
Glul expression level [1]: 251.125
Gm221 expression level [1]: 0.499
Gm853 expression level [1]: 0
Gm11744 expression level [1]: 2.594
Gng7 expression level [1]: 64.066
Gprc5c expression level [1]: 1.254
Grm2 expression level [1]: 13.2878
Gyltl1b expression level [1]: 0.192
Hapln1 expression level [1]: 10.6547
Hbb-b2 expression level [1]: 3.714
Hemk1 expression level [1]: 4.074
Homer2 expression level [1]: 14.9404
Hsd11b1 expression level [1]: 28.1849
Hspg2 expression level [1]: 0.7372
Ifi27l1 expression level [1]: 36.0763
Igfbp5 expression level [1]: 38.2003
Igfbp7 expression level [1]: 18.1462
Igfn1 expression level [1]: 0.1271
Iqgap1 expression level [1]: 3.038
Isoc1 expression level [1]: 14.1426
Kcnj2 expression level [1]: 3.205
Kcnj10 expression level [1]: 64.1636
Kif9 expression level [1]: 1.8759
Kit expression level [1]: 18.7665
Klhdc7a expression level [1]: 4.613
Lama5 expression level [1]: 0.8869
Lamp2 expression level [1]: 40.9038
Leprel4 expression level [1]: 7.907
Lingo1 expression level [1]: 88.754
Llgl2 expression level [1]: 0.4373
Lmx1a expression level [1]: 0.5034
Loxl1 expression level [1]: 1.486
Loxl2 expression level [1]: 0.1912
Lrp5 expression level [1]: 2.432
Lrp10 expression level [1]: 14.6733
Ltc4s expression level [1]: 7.102
Lypd1 expression level [1]: 47.9728
Mccc1 expression level [1]: 5.41
Mfsd7c expression level [1]: 0.65
Mmp15 expression level [1]: 6.699
Mpp7 expression level [1]: 1.162
Myoc expression level [1]: 11.9051
Myof expression level [1]: 0.8629
Ndst4 expression level [1]: 5.129
Nek11 expression level [1]: 0.5801
Nid2 expression level [1]: 1.141
Nos1 expression level [1]: 8.7895
Npas4 expression level [1]: 3.8842
Npr1 expression level [1]: 1.7036
Nqo1 expression level [1]: 3.794
Nt5dc1 expression level [1]: 1.205
Oca2 expression level [1]: 0.467
Odz4 expression level [1]: 7.194
Ooep expression level [1]: 0.07202
Pcp4l1 expression level [1]: 50.8954
Pgcp expression level [1]: 8.02
Phactr2 expression level [1]: 6.295
Pla2g4e expression level [1]: 1.85
Plek2 expression level [1]: 0.4301
Plekha2 expression level [1]: 12.177
Pltp expression level [1]: 36.9312
Plxnb2 expression level [1]: 10.316
Polr1a expression level [1]: 5.4566
Pon1 expression level [1]: 0.12
Ppfibp2 expression level [1]: 2.53
Ppp1r1a expression level [1]: 67.7123
Ppp1r1b expression level [1]: 37.5707
Prelp expression level [1]: 9.53
Prox1 expression level [1]: 14.3616
Prps2 expression level [1]: 12.0363
Ptpn14 expression level [1]: 1.315
Rab20 expression level [1]: 1.273
Rai14 expression level [1]: 1.053
Rbp3 expression level [1]: 0.5204
Rd3 expression level [1]: 0.6656
Ripk4 expression level [1]: 0.1565
Rrh expression level [1]: 0.05235
Rsph4a expression level [1]: 2.9407
Scg5 expression level [1]: 219.826
Scn4b expression level [1]: 8.643
Scube1 expression level [1]: 4.586
Scube3 expression level [1]: 0.6281
Sdk1 expression level [1]: 0.6821
Serpinb1b expression level [1]: 0.9169
Sfrp5 expression level [1]: 0.5384
Slc4a10 expression level [1]: 46.0086
Slc5a3 expression level [1]: 5.289
Slc12a2 expression level [1]: 20.5749
Slc12a4 expression level [1]: 5.898
Slc12a7 expression level [1]: 1.124
Slc16a2 expression level [1]: 14.2113
Slc16a4 expression level [1]: 2.157
Slc16a9 expression level [1]: 1.385
Slc16a12 expression level [1]: 1.226
Slc22a6 expression level [1]: 0.7873
Slc23a2 expression level [1]: 27.4105
Slc25a39 expression level [1]: 30.7081
Slc29a4 expression level [1]: 11.9409
Slc37a2 expression level [1]: 0.8387
Slc39a4 expression level [1]: 1.073
Slco1c1 expression level [1]: 20.1851
Smpdl3a expression level [1]: 19.7502
Sod3 expression level [1]: 6.1
Spag16 expression level [1]: 0.4608
Spint2 expression level [1]: 15.9511
Sptlc3 expression level [1]: 0.2346
Ssfa2 expression level [1]: 10.0587
Stk39 expression level [1]: 28.2125
Stra6 expression level [1]: 4.817
Tbc1d1 expression level [1]: 4.993
Tbc1d2 expression level [1]: 0.8273
Tbc1d9 expression level [1]: 19.741
Tbcel expression level [1]: 17.0147
Tcn2 expression level [1]: 9.139
Tead1 expression level [1]: 4.075
Tgfbi expression level [1]: 1.202
Tgfbr3 expression level [1]: 3.88
Timp2 expression level [1]: 84.9023
Tinagl1 expression level [1]: 2.32
Tjp3 expression level [1]: 0.9513
Tlr2 expression level [1]: 1.035
Tmem27 expression level [1]: 0.3657
Tmem98 expression level [1]: 10.1715
Tmem108 expression level [1]: 8.4143
Tns1 expression level [1]: 3.868
Tspan33 expression level [1]: 15.0442
Ttc21a expression level [1]: 1.107
Vamp8 expression level [1]: 13.404
Vcam1 expression level [1]: 10.2949
Vcp expression level [1]: 1.545
Wdfy1 expression level [1]: 7.05
Wdr16 expression level [1]: 1.6294
Wfs1 expression level [1]: 43.1125
Zfp185 expression level [1]: 1.3415
Zfp605 expression level [1]: 4.398
rescue of the downregulated genes [1]: 100%
rescue of the differentially expressed genes to levels comparable to control mice (CI-994 1 mg/kg i.p. daily 1 month, FIG. 1): rescued to near completion
number of genes rescued by CI-994 treatment (FIG. 1 heatmap, significance level p<0.05): 239 genes
